Earlier results as cited in patent US20100022576A1 (priority 2006, published 2010).

What was measured:
human mast cells = conditions: in vitro
[1] = in vivo

Clc1ccc2c(c1)CCc1cccnc1C2=C1CCNCC1 [desloratadine]
Release of histamine from human mast cells (human mast cells): inhibits release of histamine from human mast cells | Effect of food and grapefruit juice on bioavailability [1]: Neither food nor grapefruit juice has an effect
